Measurements as given in BindingDB's records for patent US11220486 (LA JOLLA INSTITUTE OF ALLERGY & IMMUNOLOGY; SANFORD BURNHAM …, 2022).

Target: T1, Low molecular weight phosphotyrosine protein phosphatase (Homo sapiens, UniProt P24666)
T1 sequence (P24666 whole entry): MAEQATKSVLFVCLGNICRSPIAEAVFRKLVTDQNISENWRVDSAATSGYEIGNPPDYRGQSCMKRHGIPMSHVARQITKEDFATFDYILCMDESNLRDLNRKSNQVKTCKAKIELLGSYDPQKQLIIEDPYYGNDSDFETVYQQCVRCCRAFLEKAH
Test: LMPTP Primary Screening Protocol
Protocol: A listing of materials is provided: Item, source, catalog no. […] Prepare Reagents as described in section F. Recipe. 2. Using LabCyte Echo, transfer 60 nL from 2 mM test compound source plate into assay plate Col. 5-48 (final concentration of test compounds is 20 μM). 60 nL of DMSO should be transferred to col. 1-4 for positive and negative control wells. 3. Spin plates at 1000 rpm for 1 minute in centrifuge. 4. Using the Beckman Coulter Bioraptr, add 3 μL/well of control buffer to columns 1 and 2. 5. Using the Bioraptr, add 3 μL/well of enzyme solution to col. 3-48. 6. Using the Bioraptr, add 3 μL/well of substrate solution to col. 1-48. 7. Spin plates at 1000 rpm for 1 minute in centrifuge. 8. Incubate plates in the dark at room temperature for 50 minutes. 9. Read plates on PerkinElmer Viewlux using a FI protocol.

For CC(C)(C)OC(=O)C1(c2cc(NCCCC3CCCNC3)c3ccccc3n2)C=c2ccccc2=N1 (stereo unspecified) [US11220486, Compound I98], which IC50 is on record?
Its IC50 is over 5 µM.
